# Laboratory results taken from BigSolDB 2.1.
smiles,measurement,setting,value
CC(=O)c1cccc(O)c1,solubility (mole fraction),"in benzene, 289.15 K",0.00506
same,solubility (mole fraction),"in benzene, 292.15 K",0.00532
same,solubility (mole fraction),"in benzene, 295.15 K",0.00707
same,solubility (mole fraction),"in benzene, 298.15 K",0.00848
same,solubility (mole fraction),"in benzene, 301.15 K",0.0122
same,solubility (mole fraction),"in benzene, 304.15 K",0.015
same,solubility (mole fraction),"in benzene, 307.15 K",0.0198
same,solubility (mole fraction),"in benzene, 310.15 K",0.0238
same,solubility (mole fraction),"in benzene, 313.15 K",0.0281
same,solubility (mole fraction),"in benzene, 316.15 K",0.0308
same,solubility (mole fraction),"in benzene, 319.15 K",0.037
same,solubility (mole fraction),"in benzene, 322.15 K",0.0453
same,solubility (mole fraction),"in benzene, 325.15 K",0.0614
same,solubility (mole fraction),"in ethanol, 289.15 K",0.166
same,solubility (mole fraction),"in ethanol, 292.15 K",0.175
same,solubility (mole fraction),"in ethanol, 295.15 K",0.19
same,solubility (mole fraction),"in ethanol, 298.15 K",0.209
same,solubility (mole fraction),"in ethanol, 301.15 K",0.225
same,solubility (mole fraction),"in ethanol, 304.15 K",0.245
same,solubility (mole fraction),"in ethanol, 307.15 K",0.263
same,solubility (mole fraction),"in ethanol, 310.15 K",0.287
same,solubility (mole fraction),"in ethanol, 313.15 K",0.308
same,solubility (mole fraction),"in ethanol, 316.15 K",0.335
same,solubility (mole fraction),"in ethanol, 319.15 K",0.361
same,solubility (mole fraction),"in ethanol, 322.15 K",0.391
same,solubility (mole fraction),"in ethanol, 325.15 K",0.42
same,solubility (mole fraction),"in ethyl acetate, 289.15 K",0.158
same,solubility (mole fraction),"in ethyl acetate, 292.15 K",0.168
same,solubility (mole fraction),"in ethyl acetate, 295.15 K",0.18
same,solubility (mole fraction),"in ethyl acetate, 298.15 K",0.191
same,solubility (mole fraction),"in ethyl acetate, 301.15 K",0.199
same,solubility (mole fraction),"in ethyl acetate, 304.15 K",0.214
same,solubility (mole fraction),"in ethyl acetate, 307.15 K",0.235
same,solubility (mole fraction),"in ethyl acetate, 310.15 K",0.254
same,solubility (mole fraction),"in ethyl acetate, 313.15 K",0.277
same,solubility (mole fraction),"in ethyl acetate, 316.15 K",0.304
same,solubility (mole fraction),"in ethyl acetate, 319.15 K",0.333
same,solubility (mole fraction),"in ethyl acetate, 322.15 K",0.364
same,solubility (mole fraction),"in ethyl acetate, 325.15 K",0.384
same,solubility (mole fraction),"in isobutanol, 289.15 K",0.119
same,solubility (mole fraction),"in isobutanol, 292.15 K",0.126
same,solubility (mole fraction),"in isobutanol, 295.15 K",0.146
same,solubility (mole fraction),"in isobutanol, 298.15 K",0.166
same,solubility (mole fraction),"in isobutanol, 301.15 K",0.184
same,solubility (mole fraction),"in isobutanol, 304.15 K",0.205
same,solubility (mole fraction),"in isobutanol, 307.15 K",0.235
same,solubility (mole fraction),"in isobutanol, 310.15 K",0.265
same,solubility (mole fraction),"in isobutanol, 313.15 K",0.293
same,solubility (mole fraction),"in isobutanol, 316.15 K",0.32
same,solubility (mole fraction),"in isobutanol, 319.15 K",0.348
same,solubility (mole fraction),"in isobutanol, 322.15 K",0.38
same,solubility (mole fraction),"in isobutanol, 325.15 K",0.421
same,solubility (mole fraction),"in isopropanol, 289.15 K",0.176
same,solubility (mole fraction),"in isopropanol, 292.15 K",0.184
same,solubility (mole fraction),"in isopropanol, 295.15 K",0.201
same,solubility (mole fraction),"in isopropanol, 298.15 K",0.22
same,solubility (mole fraction),"in isopropanol, 301.15 K",0.236
same,solubility (mole fraction),"in isopropanol, 304.15 K",0.256
same,solubility (mole fraction),"in isopropanol, 307.15 K",0.275
same,solubility (mole fraction),"in isopropanol, 310.15 K",0.3
same,solubility (mole fraction),"in isopropanol, 313.15 K",0.324
same,solubility (mole fraction),"in isopropanol, 316.15 K",0.349
same,solubility (mole fraction),"in isopropanol, 319.15 K",0.372
same,solubility (mole fraction),"in isopropanol, 322.15 K",0.401
same,solubility (mole fraction),"in isopropanol, 325.15 K",0.431
same,solubility (mole fraction),"in methanol, 289.15 K",0.156
same,solubility (mole fraction),"in methanol, 292.15 K",0.169
same,solubility (mole fraction),"in methanol, 295.15 K",0.185
same,solubility (mole fraction),"in methanol, 298.15 K",0.203
same,solubility (mole fraction),"in methanol, 301.15 K",0.22
same,solubility (mole fraction),"in methanol, 304.15 K",0.239
same,solubility (mole fraction),"in methanol, 307.15 K",0.255
same,solubility (mole fraction),"in methanol, 310.15 K",0.279
same,solubility (mole fraction),"in methanol, 313.15 K",0.302
same,solubility (mole fraction),"in methanol, 316.15 K",0.328
same,solubility (mole fraction),"in methanol, 319.15 K",0.349
same,solubility (mole fraction),"in methanol, 322.15 K",0.383
same,solubility (mole fraction),"in methanol, 325.15 K",0.409
same,solubility (mole fraction),"in methyl acetate, 289.15 K",0.16
same,solubility (mole fraction),"in methyl acetate, 292.15 K",0.171
same,solubility (mole fraction),"in methyl acetate, 295.15 K",0.182
same,solubility (mole fraction),"in methyl acetate, 298.15 K",0.197
same,solubility (mole fraction),"in methyl acetate, 301.15 K",0.209
same,solubility (mole fraction),"in methyl acetate, 304.15 K",0.229
same,solubility (mole fraction),"in methyl acetate, 307.15 K",0.253
same,solubility (mole fraction),"in methyl acetate, 310.15 K",0.274
same,solubility (mole fraction),"in methyl acetate, 313.15 K",0.298
same,solubility (mole fraction),"in methyl acetate, 316.15 K",0.324
same,solubility (mole fraction),"in methyl acetate, 319.15 K",0.346
same,solubility (mole fraction),"in methyl acetate, 322.15 K",0.376
same,solubility (mole fraction),"in methyl acetate, 325.15 K",0.407
same,solubility (mole fraction),"in n-butanol, 289.15 K",0.154
same,solubility (mole fraction),"in n-butanol, 292.15 K",0.163
same,solubility (mole fraction),"in n-butanol, 295.15 K",0.172
same,solubility (mole fraction),"in n-butanol, 298.15 K",0.189
same,solubility (mole fraction),"in n-butanol, 301.15 K",0.203
same,solubility (mole fraction),"in n-butanol, 304.15 K",0.221
same,solubility (mole fraction),"in n-butanol, 307.15 K",0.242
same,solubility (mole fraction),"in n-butanol, 310.15 K",0.261
same,solubility (mole fraction),"in n-butanol, 313.15 K",0.284
same,solubility (mole fraction),"in n-butanol, 316.15 K",0.309
same,solubility (mole fraction),"in n-butanol, 319.15 K",0.335
same,solubility (mole fraction),"in n-butanol, 322.15 K",0.368
same,solubility (mole fraction),"in n-butanol, 325.15 K",0.402
same,solubility (mole fraction),"in n-propanol, 289.15 K",0.152
same,solubility (mole fraction),"in n-propanol, 292.15 K",0.161
same,solubility (mole fraction),"in n-propanol, 295.15 K",0.18
same,solubility (mole fraction),"in n-propanol, 298.15 K",0.199
same,solubility (mole fraction),"in n-propanol, 301.15 K",0.211
same,solubility (mole fraction),"in n-propanol, 304.15 K",0.23
same,solubility (mole fraction),"in n-propanol, 307.15 K",0.252
same,solubility (mole fraction),"in n-propanol, 310.15 K",0.274
same,solubility (mole fraction),"in n-propanol, 313.15 K",0.299
same,solubility (mole fraction),"in n-propanol, 316.15 K",0.329
same,solubility (mole fraction),"in n-propanol, 319.15 K",0.36
same,solubility (mole fraction),"in n-propanol, 322.15 K",0.395
same,solubility (mole fraction),"in n-propanol, 325.15 K",0.425
same,solubility (mole fraction),"in water, 289.15 K",0.00073
same,solubility (mole fraction),"in water, 292.15 K",0.00078
same,solubility (mole fraction),"in water, 295.15 K",0.001
same,solubility (mole fraction),"in water, 298.15 K",0.00106
same,solubility (mole fraction),"in water, 301.15 K",0.00113
same,solubility (mole fraction),"in water, 304.15 K",0.00154
same,solubility (mole fraction),"in water, 307.15 K",0.00172
same,solubility (mole fraction),"in water, 310.15 K",0.00199
same,solubility (mole fraction),"in water, 313.15 K",0.00245
same,solubility (mole fraction),"in water, 316.15 K",0.00291
same,solubility (mole fraction),"in water, 319.15 K",0.00362
same,solubility (mole fraction),"in water, 322.15 K",0.00456
same,solubility (mole fraction),"in water, 325.15 K",0.00562
